Results taken from ChEMBL document CHEMBL6109078, “Pyrylium derivatives as outer membrane permeabilizers against MDR gram-negative bacteria via multi-target mode of action” (Eur J Med Chem, 2025).
Activity calls are given as the source filed them. The calls are words filed in the database; no cut-off is given here.

Key:
Escherichia coli [1] = assay: Antibacterial activity against Escherichia coli ATCC 25922 assessed as inhibition of bacterial growth by CLSI protocol based method; format: functional
Escherichia coli [2] = assay: Antibacterial activity against ESBL positive Escherichia coli ATCC 35218 assessed as inhibition of bacterial growth by CLSI protocol based method; format: functional
Pseudomonas aeruginosa [3] = assay: Antibacterial activity Pseudomonas aeruginosa ATCC 27853 assessed as inhibition of bacterial growth by CLSI protocol based method; format: functional
Pseudomonas aeruginosa [4] = assay: Antibacterial activity Pseudomonas aeruginosa PAO1 assessed as inhibition of bacterial growth by CLSI protocol based method; format: functional
Acinetobacter baumannii [5] = assay: Antibacterial activity against multi-drug resistant Acinetobacter baumannii clinical isolate 5 assessed as inhibition of bacterial growth by CLSI protocol based method; format: functional
Acinetobacter baumannii [6] = assay: Antibacterial activity against multi-drug resistant Acinetobacter baumannii clinical isolate 2 assessed as inhibition of bacterial growth by CLSI protocol based method; format: functional
Acinetobacter baumannii [7] = assay: Antibacterial activity against multi-drug resistant Acinetobacter baumannii clinical isolate 4 assessed as inhibition of bacterial growth by CLSI protocol based method; format: functional
Acinetobacter baumannii [8] = assay: Antibacterial activity against multi-drug resistant Acinetobacter baumannii clinical isolate 14 assessed as inhibition of bacterial growth by CLSI protocol based method; format: functional
Acinetobacter baumannii [9] = assay: Antibacterial activity against multi-drug resistant Acinetobacter baumannii clinical isolate 1 assessed as inhibition of bacterial growth by CLSI protocol based method; format: functional
Acinetobacter baumannii [10] = assay: Synergistic antibacterial activity against Acinetobacter baumannii ATCC 19606 assessed as inhibition of bacterial growth by measuring polymyxin B MIC by checkerboard assay; format: functional
Acinetobacter baumannii [11] = assay: Synergistic antibacterial activity against multi-drug resistant Acinetobacter baumannii clinical isolate 5 assessed as inhibition of bacterial growth by measuring polymyxin B MIC by checkerboard assay; format: functional
Acinetobacter baumannii [12] = assay: Synergistic antibacterial activity against multi-drug resistant Acinetobacter baumannii clinical isolate 14 assessed as inhibition of bacterial growth by measuring polymyxin B MIC by checkerboard assay; format: functional
Acinetobacter baumannii [13] = assay: Synergistic antibacterial activity against multi-drug resistant Acinetobacter baumannii clinical isolate 1 assessed as inhibition of bacterial growth by measuring polymyxin B MIC by checkerboard assay; format: functional
Acinetobacter baumannii [14] = assay: Synergistic antibacterial activity against multi-drug resistant Acinetobacter baumannii clinical isolate 43 assessed as inhibition of bacterial growth by measuring polymyxin B MIC by checkerboard assay; format: functional
Escherichia coli [15] = assay: Synergistic antibacterial activity against multi-drug resistant Escherichia coli clinical isolate 1 assessed as inhibition of bacterial growth by measuring polymyxin B MIC by checkerboard assay; format: functional
Acinetobacter baumannii [16] = assay: Synergistic antibacterial activity against Acinetobacter baumannii ATCC 19606 assessed as inhibition of bacterial growth in presence of polymyxin B by checkerboard assay; format: functional
Acinetobacter baumannii [17] = assay: Synergistic antibacterial activity against multi-drug resistant Acinetobacter baumannii clinical isolate 14 assessed as inhibition of bacterial growth in presence of polymyxin B by checkerboard assay; format: functional
Acinetobacter baumannii [18] = assay: Synergistic antibacterial activity against multi-drug resistant Acinetobacter baumannii clinical isolate 1 assessed as inhibition of bacterial growth in presence of polymyxin B by checkerboard assay; format: functional
Acinetobacter baumannii [19] = assay: Synergistic antibacterial activity against multi-drug resistant Acinetobacter baumannii clinical isolate 43 assessed as inhibition of bacterial growth in presence of polymyxin B by checkerboard assay; format: functional
Escherichia coli [20] = assay: Synergistic antibacterial activity against Escherichia coli ATCC 35218 assessed as inhibition of bacterial growth in presence of polymyxin B by checkerboard assay; format: functional
Escherichia coli [21] = assay: Synergistic antibacterial activity against multi-drug resistant Escherichia coli clinical isolate 1 assessed as inhibition of bacterial growth in presence of polymyxin B by checkerboard assay; format: functional
Escherichia coli [22] = assay: Synergistic antibacterial activity against Escherichia coli CG-4 expressing MCR-1 and NDM-1 assessed as inhibition of bacterial growth in presence of polymyxin B by checkerboard assay; format: functional
Acinetobacter baumannii [23] = assay: Synergistic antibacterial activity against Acinetobacter baumannii ATCC 19606 assessed as fractional inhibitory concentration index in presence of polymyxin B by checkerboard assay; format: functional
Acinetobacter baumannii [24] = assay: Synergistic antibacterial activity against multi-drug resistant Acinetobacter baumannii clinical isolate 1 assessed as fractional inhibitory concentration index in presence of polymyxin B by checkerboard assay; format: functional
Acinetobacter baumannii [25] = assay: Synergistic antibacterial activity against multi-drug resistant Acinetobacter baumannii clinical isolate 43 assessed as fractional inhibitory concentration index in presence of polymyxin B by checkerboard assay; format: functional
Escherichia coli [26] = assay: Synergistic antibacterial activity against Escherichia coli ATCC 25922 assessed as fractional inhibitory concentration index in presence of polymyxin B by checkerboard assay; format: functional
Escherichia coli [27] = assay: Synergistic antibacterial activity against Escherichia coli ATCC 35218 assessed as fractional inhibitory concentration index in presence of polymyxin B by checkerboard assay; format: functional
Escherichia coli [28] = assay: Synergistic antibacterial activity against Escherichia coli CG-4 expressing MCR-1 and NDM-1 assessed as fractional inhibitory concentration index in presence of polymyxin B by checkerboard assay; format: functional
Acinetobacter baumannii [29] = assay: Synergistic antibacterial activity against Acinetobacter baumannii ATCC 19606 assessed as fractional inhibitory concentration index in presence of amikacin by checkerboard assay; format: functional
Acinetobacter baumannii [30] = assay: Synergistic antibacterial activity against Acinetobacter baumannii ATCC 19606 assessed as fractional inhibitory concentration index in presence of gentamycin by checkerboard assay; format: functional
Acinetobacter baumannii [31] = assay: Synergistic antibacterial activity against multi-drug resistant Acinetobacter baumannii clinical isolate 5 assessed as fractional inhibitory concentration index in presence of gentamycin by checkerboard assay; format: functional
Acinetobacter baumannii [32] = assay: Synergistic antibacterial activity against multi-drug resistant Acinetobacter baumannii clinical isolate 14 assessed as fractional inhibitory concentration index in presence of amikacin by checkerboard assay; format: functional
Acinetobacter baumannii [33] = assay: Synergistic antibacterial activity against multi-drug resistant Acinetobacter baumannii clinical isolate 14 assessed as fractional inhibitory concentration index in presence of gentamycin by checkerboard assay; format: functional
Acinetobacter baumannii [34] = assay: Synergistic antibacterial activity against multi-drug resistant Acinetobacter baumannii clinical isolate 1 assessed as fractional inhibitory concentration index in presence of gentamycin by checkerboard assay; format: functional
Acinetobacter baumannii [35] = assay: Synergistic antibacterial activity against multi-drug resistant Acinetobacter baumannii clinical isolate 43 assessed as fractional inhibitory concentration index in presence of amikacin by checkerboard assay; format: functional
Escherichia coli [36] = assay: Synergistic antibacterial activity against Escherichia coli ATCC 25922 assessed as fractional inhibitory concentration index in presence of gentamycin by checkerboard assay; format: functional
Escherichia coli [37] = assay: Synergistic antibacterial activity against Escherichia coli ATCC 35218 assessed as fractional inhibitory concentration index in presence of amikacin by checkerboard assay; format: functional
Escherichia coli [38] = assay: Synergistic antibacterial activity against multi-drug resistant Escherichia coli clinical isolate 1 assessed as fractional inhibitory concentration index in presence of amikacin by checkerboard assay; format: functional
Escherichia coli [39] = assay: Synergistic antibacterial activity against Escherichia coli CG-4 expressing MCR-1 and NDM-1 assessed as fractional inhibitory concentration index in presence of […] by checkerboard assay; format: functional
Escherichia coli [40] = assay: Synergistic antibacterial activity against Escherichia coli CG-4 expressing MCR-1 and NDM-1 assessed as fractional inhibitory concentration index in presence of gentamycin by checkerboard assay; format: functional
Klebsiella pneumoniae [41] = assay: Synergistic antibacterial activity against Klebsiella pneumoniae assessed as inhibition of bacterial growth in presence of polymyxin B by checkerboard assay; format: functional, organism-based
Klebsiella pneumoniae [42] = assay: Synergistic antibacterial activity against Klebsiella pneumoniae assessed as inhibition of bacterial growth in presence of aminoglycoside by checkerboard assay; format: functional, organism-based

SMILES: CN1CCOc2cc(/C=C/c3cc(C(C)(C)C)[o+]c(C(C)(C)C)c3)ccc21.O=S(=O)([O-])C(F)(F)F
- MIC (Escherichia coli [1]): 50 µg/mL
- MIC (Escherichia coli [2]): 25 µg/mL
- MIC (Pseudomonas aeruginosa [3]): > 100 µg/mL
- MIC (Pseudomonas aeruginosa [4]): > 100 µg/mL
- MIC (Acinetobacter baumannii [5]): 50 µg/mL
- MIC (Acinetobacter baumannii [6]): 100 µg/mL
- MIC (Acinetobacter baumannii [7]): 100 µg/mL
- MIC (Acinetobacter baumannii [8]): 100 µg/mL
- MIC (Acinetobacter baumannii [9]): 100 µg/mL
- MIC (Acinetobacter baumannii [10]): 0.006 µg/mL
- MIC (Acinetobacter baumannii [11]): 0.006 µg/mL
- MIC (Acinetobacter baumannii [12]): 0.012 µg/mL
- MIC (Acinetobacter baumannii [13]): 0.05 µg/mL
- MIC (Acinetobacter baumannii [14]): 1 10^-4 ug/ml
- MIC (Escherichia coli [15]): 0.2 µg/mL
- MIC (Acinetobacter baumannii [16]): 6.25 µg/mL
- MIC (Acinetobacter baumannii [17]): 12.5 µg/mL
- MIC (Acinetobacter baumannii [18]): 12.5 µg/mL
- MIC (Acinetobacter baumannii [19]): 25 µg/mL
- MIC (Escherichia coli [20]): 6.25 µg/mL
- MIC (Escherichia coli [21]): 12.5 µg/mL
- MIC (Escherichia coli [22]): 3.13 µg/mL
- fractional inhibitory concentration index (FICI) (Acinetobacter baumannii [23]): 0.25
- fractional inhibitory concentration index (FICI) (Acinetobacter baumannii [24]): <0.126
- fractional inhibitory concentration index (FICI) (Acinetobacter baumannii [25]): <0.25
- fractional inhibitory concentration index (FICI) (Escherichia coli [26]): 0.266
- fractional inhibitory concentration index (FICI) (Escherichia coli [27]): 0.312
- fractional inhibitory concentration index (FICI) (Escherichia coli [28]): 0.156
- fractional inhibitory concentration index (FICI) (Acinetobacter baumannii [29]): 0.125
- fractional inhibitory concentration index (FICI) (Acinetobacter baumannii [30]): 0.125
- fractional inhibitory concentration index (FICI) (Acinetobacter baumannii [31]): 0.125
- fractional inhibitory concentration index (FICI) (Acinetobacter baumannii [32]): 0.125
- fractional inhibitory concentration index (FICI) (Acinetobacter baumannii [33]): 0.125
- fractional inhibitory concentration index (FICI) (Acinetobacter baumannii [34]): 0.125
- fractional inhibitory concentration index (FICI) (Acinetobacter baumannii [35]): 0.125
- fractional inhibitory concentration index (FICI) (Escherichia coli [36]): 0.125
- fractional inhibitory concentration index (FICI) (Escherichia coli [37]): 0.125
- fractional inhibitory concentration index (FICI) (Escherichia coli [38]): 0.125
- fractional inhibitory concentration index (FICI) (Escherichia coli [39]): 0.125
- fractional inhibitory concentration index (FICI) (Escherichia coli [40]): 0.125
- Activity (Klebsiella pneumoniae [41]): inactive
- Activity (Klebsiella pneumoniae [42]): inactive
